Patent US20240327506A1, “METHODS AND COMPOSITION FOR THE SELECTIVE ENHANCEMENT OF ADOPTIVE CELL THERAPY” (MaineHealth, priority 2023, published 2024)

Legend:
αvβ3 = αvβ3 (Homo sapiens, UniProt P05106+P06756); details: cited from earlier work
[1] = test system: primary murine CD4+ Treg cells; test: Migration of primary CD4+ Treg cells on denatured collagen type-IV; type: cell-based; details: Treg from spleens of B16F10 tumor bearing mice, compared to CP
Method: Briefly, mice (C57BL/6) were injected subcutaneously with B16F10 cells. B16F10 tumors were allowed to grow for 14-days to allow formation of solid malignant melanomas. Spleens from tumor bearing mice were dissected and primary murine CD4+ Treg cells were isolated and analyzed for the effects of the soluble collagen peptide (P2) or control peptide (CP) on cell migration on denatured collagen type-IV. Data bars represent mean CD4+ Treg cell migration+SE from 3 wells per condition.
Given our surprising finding that CD4+ Treg cell migration is enhanced on denatured collagen-IV as compared to native collagen-IV, we next tested whether CD4+ Treg cell migration through denatured collagen-IV is altered by endogenously generated soluble RGDKGE (SEQ ID NO: 1) collagen peptide P2. For these experiments, mice (C57BL/6) were injected subcutaneously with B16F10 cells. B16F10 tumors were allowed to grow for 14-days to allow formation of solid malignant melanomas. Spleens from tumor bearing mice were dissected and primary murine CD4+ Treg cells were isolated and analyzed for the effects of the soluble collagen peptide (P2) or control peptide (CP) on cell migration on denatured collagen type-IV. […]

Hut78 T-cells = test: Transwell migration of Hut78 T-cells through collagen type-IV; type: cell-based, human; details: peptide, absence of SDF-1
Method: FIGS. 4A-4H. […] Briefly, membranes from transwell migration chambers were coated with either native collagen type-IV or denatured collagen type-IV. T-cell variants were incubated with non-specific control peptide CP, or the RGDKGE (SEQ ID NO: 1)-containing collagen peptide (P2) and seed on the coated transwell membranes. T-cells were allowed to migrate in the presence or absence of SDF-1 added to the lower chamber for approximately 1.5 hours. Cell migration was quantified by counting the number of crystal violet stained cells that had migrated through to the underside of the coated membrane. FIG. 4A. Jurkat T-cell migration through denatured collagen type-IV in the presence of non-specific control peptide CP or RGDKGE (SEQ ID NO: 1)-containing collagen peptide P2 with SDF-1. FIG. 4B. Jurkat T-cell migration through native collagen type-IV in the presence of non-specific control peptide CP or RGDKGE (SEQ ID NO: 1)-containing collagen peptide P2 with SDF-1. FIG. 4C. Cem/C1 T-cell migration through denatured collagen type-IV in the presence of non-specific control peptide CP or RGDKGE (SEQ ID NO: 1)-containing collagen peptide P2 with SDF-1. FIG. 4D. Cem/C1 T-cell migration through native collagen type-IV in the presence of non-specific control peptide CP or RGDKGE (SEQ ID NO: 1)-containing collagen peptide P2. FIG. 4E. Hut78 T-cell migration through denatured collagen type-IV in the presence of non-specific control peptide CP or RGDKGE (SEQ ID NO: 1)-containing collagen peptide P2. FIG. 4F. Hut78 T-cell migration through native collagen type-IV in the presence of non-specific control peptide CP or RGDKGE (SEQ ID NO: 1)-containing collagen peptide P2. FIG. 4G Primary CD8+ T-cell migration through denatured collagen type-IV in the presence of non-specific control peptide CP or RGDKGE (SEQ ID NO: 1)-containing collagen peptide P2 with SDF-1. FIG. 4H. CD8+ T-cell migration through native collagen type-IV in the presence of non-specific control peptide CP or RGDKGE (SEQ ID NO: 1)-containing collagen peptide P2 with SDF-1. Data bars indicate the mean cell migration±S.E. *P<0.05.
Given our new observations, and the fact that many tumor types as well as immunosuppressive macrophages can secrete the small soluble RGDKGE (SEQ ID NO: 1) collagen peptide, we next sought to determine whether this soluble collagen peptide could impact T-cell migration through denatured collagen type-IV, a critical ECM component shown to be selectively enriched in tumor vessels. Briefly, membranes from transwell migration chambers were coated with either native collagen type-IV or denatured collagen type-IV. […] Cell migration was quantified following staining cells with crystal violet (6,8). […]

[2] = test system: angiogenesis and inflammation; details: peptide; cited from earlier work

αvβ3, sequence (P06756 31-889 limits assumed): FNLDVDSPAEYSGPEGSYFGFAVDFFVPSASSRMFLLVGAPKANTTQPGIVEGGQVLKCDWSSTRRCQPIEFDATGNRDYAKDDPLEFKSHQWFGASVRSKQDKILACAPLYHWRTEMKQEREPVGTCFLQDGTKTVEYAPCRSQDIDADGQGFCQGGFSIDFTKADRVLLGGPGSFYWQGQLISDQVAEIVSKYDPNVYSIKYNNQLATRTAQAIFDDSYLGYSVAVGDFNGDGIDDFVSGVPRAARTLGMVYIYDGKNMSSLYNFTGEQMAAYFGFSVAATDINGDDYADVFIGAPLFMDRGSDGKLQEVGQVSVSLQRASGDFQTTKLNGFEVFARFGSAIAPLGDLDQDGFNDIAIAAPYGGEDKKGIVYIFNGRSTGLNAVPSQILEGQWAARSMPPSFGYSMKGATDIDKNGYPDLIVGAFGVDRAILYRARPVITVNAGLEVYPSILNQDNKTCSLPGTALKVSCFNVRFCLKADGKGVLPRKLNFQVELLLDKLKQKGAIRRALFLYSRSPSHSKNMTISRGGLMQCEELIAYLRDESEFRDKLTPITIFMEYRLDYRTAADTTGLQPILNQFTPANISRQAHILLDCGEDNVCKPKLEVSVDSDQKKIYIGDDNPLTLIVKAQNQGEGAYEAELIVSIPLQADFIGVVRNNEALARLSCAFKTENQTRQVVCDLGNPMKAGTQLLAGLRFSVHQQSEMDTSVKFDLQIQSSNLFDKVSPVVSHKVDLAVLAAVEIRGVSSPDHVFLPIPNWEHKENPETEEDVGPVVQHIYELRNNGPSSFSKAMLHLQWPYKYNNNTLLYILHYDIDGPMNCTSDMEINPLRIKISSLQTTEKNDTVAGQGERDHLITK
αvβ3, sequence (P06756 891-1048 partner limits assumed): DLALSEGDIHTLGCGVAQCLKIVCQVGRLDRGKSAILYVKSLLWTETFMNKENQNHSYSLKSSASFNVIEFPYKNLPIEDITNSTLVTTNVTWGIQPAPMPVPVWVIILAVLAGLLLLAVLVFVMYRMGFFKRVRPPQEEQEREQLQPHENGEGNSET
αvβ3, sequence (P05106 27-788): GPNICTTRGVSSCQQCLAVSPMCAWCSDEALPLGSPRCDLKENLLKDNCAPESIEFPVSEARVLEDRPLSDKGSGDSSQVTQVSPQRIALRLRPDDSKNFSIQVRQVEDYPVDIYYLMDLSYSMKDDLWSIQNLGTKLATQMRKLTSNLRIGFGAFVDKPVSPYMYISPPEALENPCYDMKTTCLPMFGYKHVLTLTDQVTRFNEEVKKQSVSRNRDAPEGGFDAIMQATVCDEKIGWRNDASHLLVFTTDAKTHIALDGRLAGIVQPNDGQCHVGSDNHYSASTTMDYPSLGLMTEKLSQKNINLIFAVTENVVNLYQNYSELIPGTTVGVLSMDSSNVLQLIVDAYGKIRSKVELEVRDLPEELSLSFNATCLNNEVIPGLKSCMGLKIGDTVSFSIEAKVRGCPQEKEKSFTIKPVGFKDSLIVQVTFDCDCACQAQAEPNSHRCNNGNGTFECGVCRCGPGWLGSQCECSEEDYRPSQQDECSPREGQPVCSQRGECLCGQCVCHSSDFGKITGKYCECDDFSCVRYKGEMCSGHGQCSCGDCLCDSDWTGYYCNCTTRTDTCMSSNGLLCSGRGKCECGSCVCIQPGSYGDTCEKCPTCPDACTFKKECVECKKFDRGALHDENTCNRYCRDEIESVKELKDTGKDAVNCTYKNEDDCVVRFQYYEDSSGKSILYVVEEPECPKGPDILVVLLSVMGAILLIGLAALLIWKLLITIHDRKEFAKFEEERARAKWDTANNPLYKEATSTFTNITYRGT

Sequence: QGPRGDKGE (CQGPRGDKGEC; Synthetic: Synthetic collagen RGD containing peptide P-2) [Peptide P2, synthetic version of the soluble RGDKGE-containing collagen peptide]
- binding to αvβ3 (αvβ3): bound
- mean CD4+ Treg cell migration cell count [1]: significant increase
- Hut78 T-cell migration (Hut78 T-cells; denatured collagen type-IV): selectively inhibited
- Hut78 T-cell migration (Hut78 T-cells; native collagen type-IV): neither the soluble RGDKGE (SEQ ID NO: 1) collagen peptide P2, nor the non-specific control peptide had any significant effect
- induction of angiogenesis and inflammation in vivo [2]: significantly induced angiogenesis and inflammation
